Experimental data from patent US20250122183A1 (Pfizer Inc., priority 2023, published 2025).

Legend:
Assay type in all cases: biochemical
KAT6A Full length enzyme = KAT6A Full length enzyme (Homo sapiens (Human), UniProt Q92794); experiment: KAT6A assay (SAMDI-MS acetylation of H3 1-21 peptide); details: Morrison equation fit; replicate number in parentheses; read-out: KAT6A Ki (nM) (replicate number)
[1] = target: KAT7+JADE1+EAF6+ING5 4 protein complex (Homo sapiens (Human), UniProt O95251); experiment: KAT7 JADE1 assay (SAMDI-MS acetylation of H3 1-21 peptide); details: Morrison equation fit; replicate number in parentheses; read-out: KAT7 JADE1 Ki (nM) (replicate number)
KAT8 Full length enzyme = KAT8 Full length enzyme (Homo sapiens (Human), UniProt Q9H7Z6); experiment: KAT8 assay (SAMDI-MS acetylation of H3 1-21 peptide); details: Morrison equation fit; replicate number in parentheses; read-out: KAT8 Ki (nM) (replicate number)
KAT5 Full length enzyme = KAT5 Full length enzyme (Homo sapiens (Human), UniProt Q92993); experiment: KAT5 assay (SAMDI-MS acetylation of H4 1-21 peptide); details: Morrison equation fit; replicate number in parentheses; read-out: KAT5 Ki (nM) (replicate number)
Chain of KAT5 Full length enzyme (Q92993 whole entry): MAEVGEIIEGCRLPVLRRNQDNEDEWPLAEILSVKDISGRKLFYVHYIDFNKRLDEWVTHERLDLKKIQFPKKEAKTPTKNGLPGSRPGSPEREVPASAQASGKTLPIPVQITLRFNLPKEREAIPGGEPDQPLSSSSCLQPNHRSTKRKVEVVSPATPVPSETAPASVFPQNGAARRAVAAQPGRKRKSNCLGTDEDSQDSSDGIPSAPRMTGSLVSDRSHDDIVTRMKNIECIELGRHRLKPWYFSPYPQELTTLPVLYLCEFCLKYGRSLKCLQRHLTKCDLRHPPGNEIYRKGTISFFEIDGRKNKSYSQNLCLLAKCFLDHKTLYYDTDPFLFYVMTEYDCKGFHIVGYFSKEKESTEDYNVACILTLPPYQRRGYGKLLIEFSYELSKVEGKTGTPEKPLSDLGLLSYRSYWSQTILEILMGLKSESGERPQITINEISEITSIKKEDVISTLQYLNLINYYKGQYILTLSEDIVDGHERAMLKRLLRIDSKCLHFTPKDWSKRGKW

Chain of KAT8 Full length enzyme (Q9H7Z6 whole entry): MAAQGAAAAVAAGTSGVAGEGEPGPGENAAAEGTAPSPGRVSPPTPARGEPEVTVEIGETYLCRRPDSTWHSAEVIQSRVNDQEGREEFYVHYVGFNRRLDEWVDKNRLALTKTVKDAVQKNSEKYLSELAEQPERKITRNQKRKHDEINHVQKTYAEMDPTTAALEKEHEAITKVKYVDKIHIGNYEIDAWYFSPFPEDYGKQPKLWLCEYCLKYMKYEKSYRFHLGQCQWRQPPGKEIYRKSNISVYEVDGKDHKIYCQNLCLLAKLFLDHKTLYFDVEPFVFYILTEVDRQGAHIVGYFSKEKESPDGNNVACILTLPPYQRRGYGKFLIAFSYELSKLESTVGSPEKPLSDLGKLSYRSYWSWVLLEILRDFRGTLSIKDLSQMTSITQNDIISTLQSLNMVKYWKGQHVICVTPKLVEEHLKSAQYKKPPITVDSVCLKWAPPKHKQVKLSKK
Chain of KAT6A Full length enzyme (Q92794 other isoform, or with tags, fused parts or gaps): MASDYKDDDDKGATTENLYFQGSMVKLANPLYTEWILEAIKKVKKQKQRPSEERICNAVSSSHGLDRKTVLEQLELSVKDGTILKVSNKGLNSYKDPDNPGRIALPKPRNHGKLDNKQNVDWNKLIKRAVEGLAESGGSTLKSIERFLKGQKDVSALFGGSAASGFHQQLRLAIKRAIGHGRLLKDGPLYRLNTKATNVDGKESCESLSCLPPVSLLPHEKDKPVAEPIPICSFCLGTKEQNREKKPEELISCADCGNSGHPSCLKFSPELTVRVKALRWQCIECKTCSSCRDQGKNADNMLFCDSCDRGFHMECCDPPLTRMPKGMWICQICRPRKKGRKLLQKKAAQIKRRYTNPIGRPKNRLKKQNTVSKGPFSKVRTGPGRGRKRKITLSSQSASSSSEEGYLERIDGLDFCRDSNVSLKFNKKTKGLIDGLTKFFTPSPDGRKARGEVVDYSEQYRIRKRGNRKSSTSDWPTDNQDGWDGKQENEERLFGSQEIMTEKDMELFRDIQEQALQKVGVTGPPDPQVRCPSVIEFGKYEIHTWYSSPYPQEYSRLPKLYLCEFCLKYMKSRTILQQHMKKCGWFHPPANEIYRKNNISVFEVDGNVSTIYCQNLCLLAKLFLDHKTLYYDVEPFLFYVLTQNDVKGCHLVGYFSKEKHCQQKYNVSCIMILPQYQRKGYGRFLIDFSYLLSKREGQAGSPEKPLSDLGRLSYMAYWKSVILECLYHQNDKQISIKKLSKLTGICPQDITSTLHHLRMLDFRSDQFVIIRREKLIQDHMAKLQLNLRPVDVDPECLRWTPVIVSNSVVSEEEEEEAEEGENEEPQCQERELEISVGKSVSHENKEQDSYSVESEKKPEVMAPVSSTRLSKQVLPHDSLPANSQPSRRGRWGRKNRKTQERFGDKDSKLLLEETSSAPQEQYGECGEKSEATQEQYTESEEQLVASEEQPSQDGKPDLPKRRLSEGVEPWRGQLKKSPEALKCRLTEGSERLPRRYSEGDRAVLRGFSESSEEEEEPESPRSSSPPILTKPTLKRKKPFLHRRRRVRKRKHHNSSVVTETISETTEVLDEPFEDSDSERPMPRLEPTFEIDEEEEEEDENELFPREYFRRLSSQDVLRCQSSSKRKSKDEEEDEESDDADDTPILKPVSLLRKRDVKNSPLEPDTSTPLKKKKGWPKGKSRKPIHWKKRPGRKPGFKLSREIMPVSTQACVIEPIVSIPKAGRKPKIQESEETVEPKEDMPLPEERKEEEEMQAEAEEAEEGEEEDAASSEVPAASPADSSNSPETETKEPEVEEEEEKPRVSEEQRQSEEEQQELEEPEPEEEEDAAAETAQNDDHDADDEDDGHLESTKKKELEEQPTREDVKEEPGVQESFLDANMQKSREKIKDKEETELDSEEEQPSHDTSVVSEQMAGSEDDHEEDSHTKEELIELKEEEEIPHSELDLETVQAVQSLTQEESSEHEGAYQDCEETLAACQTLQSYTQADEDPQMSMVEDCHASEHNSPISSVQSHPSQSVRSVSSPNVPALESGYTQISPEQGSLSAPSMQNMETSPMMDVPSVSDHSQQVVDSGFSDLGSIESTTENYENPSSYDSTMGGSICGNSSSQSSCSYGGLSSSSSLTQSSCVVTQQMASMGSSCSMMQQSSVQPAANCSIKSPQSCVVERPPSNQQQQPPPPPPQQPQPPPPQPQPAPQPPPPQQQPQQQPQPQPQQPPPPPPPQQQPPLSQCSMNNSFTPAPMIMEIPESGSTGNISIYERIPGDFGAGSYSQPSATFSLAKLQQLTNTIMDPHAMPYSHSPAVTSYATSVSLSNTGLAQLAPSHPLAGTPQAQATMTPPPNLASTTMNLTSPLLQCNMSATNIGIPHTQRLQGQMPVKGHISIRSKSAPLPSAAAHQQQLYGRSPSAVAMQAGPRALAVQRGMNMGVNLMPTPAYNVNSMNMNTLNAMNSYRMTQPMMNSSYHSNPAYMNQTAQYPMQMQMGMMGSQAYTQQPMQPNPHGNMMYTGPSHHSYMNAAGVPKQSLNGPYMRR

Structure (SMILES) | Ki (KAT6A Full length enzyme) [nM] | Ki [1] [nM] | Ki (KAT8 Full length enzyme) [nM] | Ki (KAT5 Full length enzyme) [nM]
COc1cc2c(NS(=O)(=O)c3c(OC)cc(C(C)N4CC(F)C4)cc3OC)noc2cc1Nc1cc(C2CC2)[nH]n1 (single isomer, unassigned) [Example 209, N-{6-[(5-cyclopropyl-1 H-pyrazol-3-yl)amino]-5-methoxy-1,2-benzoxazol-3-yl}-4-[1-(3-fluoroazetidin-1-yl)ethyl]-2,6-dimethoxybenzene-1-sulfonamide] | 1.4 | 7.7 | 2400 | 106
COc1cc2c(NS(=O)(=O)c3c(OC)cc(-c4ccn(C)n4)cc3OC)noc2cc1Nc1cc(C2CC2C)n[nH]1 (single isomer, unassigned) [Example 242, 2,6-dimethoxy-N-(5-methoxy-6-{[3-(2-methylcyclopropyl)-1 H-pyrazol-5-yl]amino}-1,2-benzoxazol-3-yl)-4-(1-methyl-1H-pyrazol-3-yl)benzene-1-sulfonamide] | 0.9 | 9.2 | 439 | 34
COc1cc2c(NS(=O)(=O)c3c(OC)cc(-c4cccnc4)cc3OC)noc2cc1Nc1cc(C2CC2)n[nH]1 [Example 07, N-{6-[(3-cyclopropyl-1H-pyrazol-5-yl)amino]-5-methoxy-1,2-benzoxazol-3-yl}-2,6-dimethoxy-4-(pyridin-3-yl)benzene-1-sulfonamide] | 0.6 | 4.2 | 457 | 53.6
COc1cc2c(NS(=O)(=O)c3c(OC)cc(-c4ncco4)cc3OC)noc2cc1Nc1cc(C2CC2)n[nH]1 [Example 08, N-{6-[(3-cyclopropyl-1H-pyrazol-5-yl)amino]-5-methoxy-1,2-benzoxazol-3-yl}-2,6-dimethoxy-4-(1,3-oxazol-2-yl)benzene-1-sulfonamide] | 1.2 | 12.8 | 1620 | 46.9
COc1cccc(OC)c1S(=O)(=O)Nc1noc2cc(NC3CCC3)cc(OC)c12 [Example 10, N-[6-(cyclobutylamino)-4-methoxy-1,2-benzoxazol-3-yl]-2,6-dimethoxybenzene-1-sulfonamide] | 3.1 | 727 | 11500 | 11800
COc1cccc(OC)c1S(=O)(=O)Nc1noc2cc(N[C@H]3CCOC3)cc(OC)c12 [Example 14, 2,6-dimethoxy-N-(4-methoxy-6-{[(3S)-oxolan-3-yl]amino}-1,2-benzoxazol-3-yl)benzene-1-sulfonamide] | 10.1 | > 2340 | > 16300 | 44900
COc1cccc(OC)c1S(=O)(=O)Nc1noc2cc(Nc3ccon3)cc(OC)c12 [Example 16, 2,6-dimethoxy-N-{4-methoxy-6-[(1,2-oxazol-3-yl)amino]-1,2-benzoxazol-3-yl}benzene-1-sulfonamide] | 0.2 | 702 | 2250 | 1650
COc1cccc(OC)c1S(=O)(=O)Nc1noc2cc(Nc3ccccn3)cc(OC)c12 [Example 18, 2,6-dimethoxy-N-{4-methoxy-6-[(pyridin-2-yl)amino]-1,2-benzoxazol-3-yl}benzene-1-sulfonamide] | 1 | 245 | 5960 | 5420
COc1cccc(OC)c1S(=O)(=O)Nc1noc2cc(Nc3cccnn3)cc(OC)c12 [Example 19, 2,6-dimethoxy-N-{4-methoxy-6-[(pyridazin-3-yl)amino]-1,2-benzoxazol-3-yl}benzene-1-sulfonamide] | 30.8 | 516 | > 16300 | 15700
COc1cccc(OC)c1S(=O)(=O)Nc1noc2cc(Nc3ncccn3)cc(OC)c12 [Example 20, 2,6-dimethoxy-N-{4-methoxy-6-[(pyrimidin-2-yl)amino]-1,2-benzoxazol-3-yl}benzene-1-sulfonamide] | 5.3 | 1540 | 14600 | 9380
COc1cc2c(NS(=O)(=O)c3c(OC)cccc3OC)noc2cc1Nc1cc(C(C)(F)F)n[nH]1 [Example 66, N-(6-{[3-(1,1-difluoroethyl)-1H-pyrazol-5-yl]amino}-5-methoxy-1,2-benzoxazol-3-yl)-2,6-dimethoxybenzene-1-sulfonamide] | 10.7 | 130 | > 13000 | 871
CCOc1cc(C)c(F)cc1S(=O)(=O)Nc1noc2cc(Nc3cc(C4CC4)n[nH]3)c(F)c(OC)c12 [Example 70, N-{6-[(3-cyclopropyl-1H-pyrazol-5-yl)amino]-5-fluoro-4-methoxy-1,2-benzoxazol-3-yl}-2-ethoxy-5-fluoro-4-methylbenzene-1-sulfonamide] | 1.9 | 16.4 | 3880 | 280
CCc1cc(Nc2cc3onc(NS(=O)(=O)c4c(OC)cccc4OC)c3cc2OC)nn1C [Example 73, N-{6-[(5-ethyl-1-methyl-1H-pyrazol-3-yl)amino]-5-methoxy-1,2-benzoxazol-3-yl}-2,6-dimethoxybenzene-1-sulfonamide] | 0.7 | 31.3 | 4330 | 287
CCn1nc(Nc2cc3onc(NS(=O)(=O)c4c(OC)cccc4OC)c3cc2OC)cc1C [Example 74, N-{6-[(1-ethyl-5-methyl-1H-pyrazol-3-yl)amino]-5-methoxy-1,2-benzoxazol-3-yl}-2,6-dimethoxybenzene-1-sulfonamide] | 5.2 | 483 | > 13000 | 2160
CCn1cnc(Nc2cc3onc(NS(=O)(=O)c4c(OC)cccc4OC)c3cc2OC)c1 [Example 75, N-{6-[(1-ethyl-1H-imidazol-4-yl)amino]-5-methoxy-1,2-benzoxazol-3-yl}-2,6-dimethoxybenzene-1-sulfonamide] | 22.3 | 501 | > 11200 | 2210
CCOc1cc(F)ccc1S(=O)(=O)Nc1noc2cc(Nc3cc(C4CC4)n[nH]3)c(F)c(OC)c12 [Example 76, N-{6-[(3-cyclopropyl-1H-pyrazol-5-yl)amino]-5-fluoro-4-methoxy-1,2-benzoxazol-3-yl}-2-ethoxy-4-fluorobenzene-1-sulfonamide] | 11.1 | 92 | > 13000 | 1160
COc1cccc(OC2CC2)c1S(=O)(=O)Nc1noc2cc(Nc3cc(C4CC4)n[nH]3)c(F)c(OC)c12 [Example 80, 2-(cyclopropyloxy)-N-{6-[(5-cyclopropyl-1H-pyrazol-3-yl)amino]-5-fluoro-4-methoxy-1,2-benzoxazol-3-yl}-6-methoxybenzene-1-sulfonamide] | 3.8 | 32.3 | 7760 | 1450
COc1cccc(F)c1S(=O)(=O)Nc1noc2cc(Nc3cc(C4CC4)n[nH]3)c(F)c(OC)c12 [Example 81, N-{6-[(3-cyclopropyl-1H-pyrazol-5-yl)amino]-5-fluoro-4-methoxy-1,2-benzoxazol-3-yl}-2-fluoro-6-methoxybenzene-1-sulfonamide] | 3.5 | 31.6 | > 13000 | 336
COc1cc2c(NS(=O)(=O)c3c(OC)cccc3OC)noc2cc1Nc1cc(C2CCCC2)n[nH]1 [Example 85, N-{6-[(3-cyclopentyl-1H-pyrazol-5-yl)amino]-5-methoxy-1,2-benzoxazol-3-yl}-2,6-dimethoxybenzene-1-sulfonamide] | 4.7 | 33.4 | 3380 | 225
